Assay results as given in ChEMBL document CHEMBL4673183, “Hit-to-lead optimization of a benzene sulfonamide series for potential antileishmanial agents” (RSC Med Chem, 2020).

Experiments:
Peritoneal macrophage = assay: cells; conditions: Mus musculus, Swiss, 120 h, read-out: pIC50 (converted)
in vitro = conditions: mouse, plasma

Row | Structure (SMILES) | IC50 (Peritoneal macrophage) [µM] | remaining at 6 h (in vitro) [%]
1 | N#Cc1ccccc1S(=O)(=O)N(Cc1ccccc1)Cc1ccccc1 | > 64.6 | –
2 | COCCN(Cc1ccc(F)cc1)S(=O)(=O)c1cc(C#N)ccc1OC | > 64.6 | –
3 | COc1ccc(C(=O)O)cc1S(=O)(=O)N(Cc1ccccc1)Cc1ccccc1 | > 64.6 | –
4 | CS(=O)(=O)c1ccccc1S(=O)(=O)N(Cc1ccccc1)Cc1ccccc1 | > 64.6 | –
5 | COc1ccc(S(=O)(=O)N(Cc2ccccc2)Cc2ccccc2)cc1 | > 64.6 | –
6 | COc1ccc(S(N)(=O)=O)cc1S(=O)(=O)N(Cc1ccccc1)Cc1ccccc1 | > 64.6 | –
7 | COc1ncccc1S(=O)(=O)N(Cc1ccccc1)Cc1ccccc1 | 64.6 | –
8 | COc1ccc(OC)c(S(=O)(=O)N(Cc2ccc(F)cc2)c2ccc(F)cc2)c1 | > 64.6 | –
9 | COc1ccc(C(N)=O)cc1S(=O)(=O)N(Cc1ccccc1)Cc1ccccc1 | > 64.6 | –
10 | COCCOCN1CNc2cc(OC)c(S(=O)(=O)N(Cc3ccccc3)Cc3ccccc3)cc2S1(=O)=O | > 64.6 | –
11 | COc1ccc(OC)c(S(=O)(=O)N(Cc2ccc(F)cc2)Cc2nc(C)no2)c1 | > 64.6 | –
12 | COc1ccc(OC)c(S(=O)(=O)N(Cc2ccccc2)Cc2ccccc2)c1 | > 64.6 | –
13 | COc1ccc(CN2CCOCC2)cc1S(=O)(=O)N(Cc1ccc(F)cc1)Cc1ccc(F)cc1 | > 64.6 | –
14 | COc1ccc([S+](C)[O-])cc1S(=O)(=O)N(Cc1ccccc1)Cc1ccccc1 (stereo not drawn) | > 64.6 | –
15 | COc1ccc(C(=O)N2CCOCC2)cc1S(=O)(=O)N(Cc1ccc(F)cc1)Cc1ccc(C(F)(F)F)nc1 | > 64.6 | 22
16 | Cn1cccc(S(=O)(=O)N(Cc2ccc(F)cc2)Cc2ccc(F)cc2)c1=O | 64.6 | –

Row | Structure (SMILES) | IC50 (Peritoneal macrophage) [µM] | remaining at 6 h (in vitro) [%]
17 | COc1ccc(N2CCOCC2)cc1S(=O)(=O)N(Cc1ccc(F)cc1)Cc1ccc(F)cc1 | > 64.6 | –
18 | COc1ccc(C#N)cc1S(=O)(=O)N(Cc1ccc(F)cc1)C1CCOCC1 | > 64.6 | –
19 | COc1ccc(C(=O)N2CCOCC2)cc1S(=O)(=O)N(Cc1ccc(F)cc1)CC(C)C | > 64.6 | –
20 | COc1ccc(C(=O)NC2COC2)cc1S(=O)(=O)N(Cc1ccc(F)cc1)Cc1ccc(F)cc1 | > 64.6 | –
21 | COc1ccc(C#N)cc1S(=O)(=O)N(Cc1ccccc1)Cc1cnc(C(F)(F)F)nc1 | > 64.6 | –
22 | COc1ccc(C#N)cc1S(=O)(=O)N(Cc1ccc(C(F)(F)F)nc1)Cc1ccc(C(F)(F)F)nc1 | > 64.6 | –
23 | COc1ccc(C#N)cc1S(=O)(=O)N(Cc1ccccc1)Cc1ccccc1 | > 64.6 | –
24 | COc1ccc(S(C)(=O)=O)cc1S(=O)(=O)N(Cc1ccc(F)cc1)Cc1ccc(F)cc1 | > 64.6 | –
25 | COc1ccc(C(=O)N2CCOCC2)cc1S(=O)(=O)N(Cc1ccc(C(F)(F)F)nc1)CC(C)(C)C | > 64.6 | –
26 | COc1ccc(C(=O)N2CCOCC2)cc1S(=O)(=O)N(Cc1ccccc1)Cc1cnc(C(F)(F)F)nc1 | > 64.6 | 42
27 | COc1ccc(C(=O)N2CCOCC2)cc1S(=O)(=O)N(Cc1ccccc1)CC(C)(C)C | > 64.6 | –
28 | COc1ccc(OC)c(S(=O)(=O)N(Cc2ccc(F)cc2)Cc2cnc(OC)nc2OC)c1 | > 64.6 | –
29 | O=S(=O)(c1cc(F)ccc1F)N(Cc1ccc(F)cc1)Cc1ccc(F)cc1 | > 64.6 | –
30 | COc1ccccc1S(=O)(=O)N(Cc1ccccc1)Cc1ccccc1 | > 64.6 | –
31 | COCCN(Cc1ccc(F)cc1)S(=O)(=O)c1cc(C(=O)N2CCOCC2)ccc1OC | > 64.6 | –
